The supplement of paper PMC10331698
± gives the standard deviation of the averaged measurements.

Legend:
Test in all cases: level (log10 ratio to DMSO vehicle control); higher = higher biomarker level / cell amount than vehicle control
Details in all cases: in DMSO
Perfluoropentanoic acid = compound: O=C(O)C(F)(F)C(F)(F)C(F)(F)C(F)(F)F [Perfluoropentanoic acid]
Description: (§1)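 BioMAP Diversity Plus panel of 12 human primary cell co-culture systems (3C, 4H, LPS, SAg, BT, BF4T, BE3C, CASM3C, HDF3CGF, KF3CT, MyoF, Mphg). Compounds were added 1 h before stimulation and left for 24 h (MyoF 48 h; BT 72 h for soluble read-outs or 6 d for IgG). Biomarkers were read by ELISA, cytotoxicity by SRB, PBMC viability and proliferation by Alamar Blue. Each well value was divided by the mean of 8 DMSO control wells on the same plate and log10 transformed; duplicate blinded samples were tested at 4 concentrations.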

Perfluorodecanoic acid = compound: O=C(O)C(F)(F)C(F)(F)C(F)(F)C(F)(F)C(F)(F)C(F)(F)C(F)(F)C(F)(F)C(F)(F)F [Perfluorodecanoic acid]
Description: as §1

[1] = compound: COC(=O)CCC(F)(F)C(F)(F)C(F)(F)C(F)(F)F [Methyl 2H,2H,3H,3H-perfluoroheptanoate]
Description: as §1

[2] = compound: O=C(O)C(F)(F)OC(F)(F)C(F)(F)OC(F)(F)F [Perfluoro-3,6-dioxaheptanoic acid]
Description: as §1

[3] = compound: C=CC(F)(F)C(F)(F)C(F)(F)C(F)(F)C(F)(F)C(F)(F)C(F)(F)C(F)(F)C=C [1,8-Divinylperfluorooctane]
Description: as §1

[4] = compound: O=C(O)C(F)(F)C(F)(F)C(F)(F)OC(F)(C(F)(F)F)C(F)(F)F [Perfluoro-4-isopropoxybutanoic acid]
Description: as §1

Pentafluoropropionamide = compound: NC(=O)C(F)(F)C(F)(F)F [Pentafluoropropionamide]
Description: as §1

| Test System | level (log10) (Perfluoropentanoic acid; 6700 nM) | level (log10) (Perfluoropentanoic acid; 20000 nM) | level (log10) (Perfluoropentanoic acid; 60000 nM) | level (log10) (Perfluorodecanoic acid; 6700 nM) | level (log10) (Perfluorodecanoic acid; 20000 nM) | level (log10) ([1]; 6700 nM) | level (log10) ([1]; 20000 nM) | level (log10) ([1]; 60000 nM) | level (log10) ([2]; 6700 nM) | level (log10) ([2]; 20000 nM) | level (log10) ([2]; 60000 nM) | level (log10) ([3]; 6700 nM) | level (log10) ([3]; 20000 nM) | level (log10) ([4]; 6700 nM) | level (log10) ([4]; 20000 nM) | level (log10) ([4]; 60000 nM) | level (log10) (Pentafluoropropionamide; 6700 nM) | level (log10) (Pentafluoropropionamide; 20000 nM) | level (log10) (Pentafluoropropionamide; 60000 nM) |
| --- | --- | --- | --- | --- | --- | --- | --- | --- | --- | --- | --- | --- | --- | --- | --- | --- | --- | --- | --- |
| lMphg:CCL3/MIP-1alpha | 0.008 ± 0.059 | -0.006 ± 0.055 | 0.006 ± 0.055 | 0.004 ± 0.013 | -0.0125 ± 0.049 | -0.0315 ± 0.005 | -0.013 ± 0.0028 | -0.004 ± 0.045 | -0.0185 ± 0.026 | -0.0065 ± 0.012 | -0.0065 ± 0.019 | -0.019 ± 0.0071 | 0.0065 ± 0.046 | -0.035 ± 0.0085 | -0.0355 ± 0.029 | -0.005 ± 0.037 | -0.011 ± 0.011 | -0.0175 ± 0.0064 | 0.017 ± 0.045 |
| 3C:CD106/VCAM-1 | 0.002 ± 0.023 | -0.0055 ± 0.021 | 0.0235 ± 0.015 | -0.0005 ± 0.012 | -0.001 ± 0.021 | -0.0175 ± 0.028 | -0.0125 ± 0.013 | 0.0065 ± 0.005 | -0.0185 ± 0.019 | -0.008 ± 0.0071 | -0.001 ± 0.018 | -0.018 ± 0.017 | -0.003 ± 0.011 | 0.0135 ± 0.00071 | 0.006 ± 0.011 | 0.015 ± 0.02 | -0.0215 ± 0.013 | -0.009 ± 0.027 | -0.0105 ± 0.005 |
| KF3CT:CXCL9/MIG | -0.002 ± 0.0057 | -0.0055 ± 0.0021 | 0.0085 ± 0.013 | 0.0065 ± 0.0078 | -0.0185 ± 0.0035 | -0.003 ± 0.0057 | 0.004 ± 0.0042 | -0.02 ± 0.0028 | -0.022 ± 0.0071 | 0.0065 ± 0.013 | -0.0035 ± 0.019 | -0.002 ± 0.0042 | -0.0015 ± 0.011 | 0.0025 ± 0.011 | 0.0105 ± 0.00071 | 0.0155 ± 0.023 | 0.0055 ± 0.013 | -0.0015 ± 0.0035 | -0.0085 ± 0.012 |
| BE3C:tPA | -0.059 ± 0.011 | -0.043 ± 0.017 | -0.013 ± 0.064 | 0.0215 ± 0.026 | -0.546 ± 0.0085 | -0.006 ± 0.02 | -0.016 ± 0.014 | 0.0005 ± 0.0078 | -0.025 ± 0.0099 | -0.0485 ± 0.0021 | -0.03 ± 0.033 | -0.0145 ± 0.0021 | -0.0015 ± 0.015 | -0.0285 ± 0.018 | -0.0385 ± 0.0035 | -0.0025 ± 0.057 | -0.0055 ± 0.012 | -0.001 ± 0.018 | 0.003 ± 0.02 |
| BE3C:MMP-1 | -0.015 ± 0.03 | -0.0175 ± 0.029 | 0.027 ± 0.047 | 0.211 ± 0.041 | -0.4875 ± 0.0035 | 0.0035 ± 0.052 | 0.004 ± 0.045 | 0.03 ± 0.1 | -0.042 ± 0.048 | -0.0015 ± 0.057 | 0.0145 ± 0.037 | 0.0095 ± 0.069 | 0.0345 ± 0.0092 | -0.002 ± 0.017 | 0.004 ± 0.025 | 0.0605 ± 0.054 | 0.0275 ± 0.015 | 0.0185 ± 0.028 | 0.0665 ± 0.037 |
| 3C:CD142/Tissue Factor | 0.0225 ± 0.011 | 0.018 ± 0.027 | 0.0395 ± 0.056 | -0.013 ± 0.013 | -0.029 ± 0.0042 | -0.0115 ± 0.066 | -0.038 ± 0.021 | -0.0005 ± 0.026 | -0.0295 ± 0.047 | -0.025 ± 0.04 | -0.053 ± 0.0014 | -0.068 ± 0.041 | -0.0205 ± 0.061 | -0.015 ± 0.0085 | -0.0185 ± 0.0035 | -0.002 ± 0.0057 | -0.0305 ± 0.032 | -0.0575 ± 0.019 | -0.0205 ± 0.015 |
| BE3C:SRB | 0.002 ± 0.0085 | -0.0035 ± 0.005 | 0 ± 0.016 | -0.0245 ± 0.005 | -0.664 ± 0.021 | -0.004 ± 0.0028 | -0.0015 ± 0.0021 | 0.002 | 0.0005 ± 0.0064 | -0.0025 ± 0.00071 | 0.0015 ± 0.0064 | -0.0005 ± 0.00071 | 0 ± 0.0014 | -0.0035 ± 0.00071 | -0.0095 ± 0.00071 | 0.001 ± 0.0085 | -0.0015 ± 0.0021 | -0.001 | -0.0015 ± 0.005 |
| CASM3C:CXCL9/MIG | 0.001 ± 0.062 | -0.0015 ± 0.036 | 0.043 ± 0.017 | -0.012 ± 0.0028 | -0.0055 ± 0.0064 | -0.006 ± 0.0085 | 0.0035 ± 0.0035 | 0.015 ± 0.0028 | 0.028 ± 0.058 | 0.0245 ± 0.083 | 0.0415 ± 0.087 | -0.013 ± 0.0085 | -0.0115 ± 0.011 | 0.01 ± 0.0014 | 0.0125 ± 0.0021 | 0.044 ± 0.048 | 0 ± 0.0014 | -0.0035 ± 0.005 | -0.008 ± 0.0042 |
| HDF3CGF:Collagen III | 0.005 ± 0.014 | 0.01 ± 0.017 | 0.033 ± 0.034 | -0.08 ± 0.058 | -0.0755 ± 0.021 | 0.0065 ± 0.016 | 0.0095 ± 0.00071 | 0.0105 ± 0.015 | 0.0025 ± 0.0078 | 0.0225 ± 0.0035 | 0.0375 ± 0.022 | 0.001 ± 0.024 | -0.0125 ± 0.029 | -0.02 ± 0.051 | -0.0115 ± 0.011 | -0.0025 ± 0.057 | 0.026 ± 0.02 | 0.009 ± 0.028 | 0.034 ± 0.0028 |
| MyoF:CD106/VCAM-1 | 0.0025 ± 0.005 | 0.001 | -0.001 ± 0.0057 | -0.019 ± 0.0071 | -0.084 ± 0.02 | -0.003 ± 0.0014 | 0.0105 ± 0.021 | 0.018 ± 0.011 | 0.001 ± 0.048 | -0.0175 ± 0.028 | -0.021 ± 0.051 | 0.006 ± 0.0042 | 0.0075 ± 0.018 | -0.023 ± 0.017 | 0.0095 ± 0.0035 | -0.001 | -0.013 ± 0.017 | 0.006 ± 0.028 | -0.0075 ± 0.0021 |
| HDF3CGF:CCL2/MCP-1 | -0.03 ± 0.017 | -0.054 ± 0.013 | -0.022 ± 0.048 | -0.0595 ± 0.0078 | 0.042 ± 0.034 | -0.039 ± 0.021 | -0.0375 ± 0.06 | -0.014 ± 0.014 | 0.0155 ± 0.029 | 0.027 ± 0.023 | 0.0055 ± 0.049 | -0.022 ± 0.0042 | -0.005 ± 0.011 | 0.013 ± 0.0028 | 0.0335 ± 0.019 | 0.0425 ± 0.0021 | -0.024 ± 0.034 | -0.0245 ± 0.012 | -0.015 ± 0.031 |
| BE3C:MMP-9 | -0.0325 ± 0.0078 | -0.0105 ± 0.015 | 0.0215 ± 0.035 | 0.008 ± 0.014 | -0.458 ± 0.0028 | -0.001 ± 0.011 | -0.0065 ± 0.023 | -0.0155 ± 0.013 | -0.0395 ± 0.005 | -0.026 ± 0.0042 | -0.019 ± 0.047 | -0.0165 ± 0.011 | -0.0165 ± 0.012 | 0.0235 ± 0.033 | 0.0185 ± 0.044 | 0.0645 ± 0.067 | -0.002 ± 0.011 | -0.02 ± 0.031 | 0.004 ± 0.017 |
| KF3CT:CD54/ICAM-1 | 0.004 ± 0.0057 | 0.001 ± 0.013 | 0.016 ± 0.028 | 0.0095 ± 0.013 | -0.003 ± 0.0028 | 0.005 ± 0.0028 | 0.021 ± 0.024 | -0.01 ± 0.04 | -0.0055 ± 0.0035 | -0.0115 ± 0.00071 | -0.02 ± 0.011 | -0.0145 ± 0.00071 | -0.002 | 0.001 ± 0.016 | -0.035 ± 0.0071 | -0.0495 ± 0.016 | -0.009 ± 0.0057 | -0.0045 ± 0.016 | 0.006 ± 0.018 |
